From US6369069B1 (Aventis Pharma Deutschland GmbH, priority 1998, dated 2002)

tested on: Na^+-dependent Cl^−/HCO3^− exchanger (NCBE); assay: Inhibition of the Na+-dependent Cl−/HCO3− exchanger (NCBE) in human endothelial cells (pHi recovery, BCECF fluorescence, FLIPR); assay type: cell-based; details: 10 μM
Description: Inhibition of the Na^+-dependent Cl^−/HCO3^− exchanger (NCBE) in human endothelial cells
Human endothelial cells (ECV-304) were detached form culture flasks with the aid of trypsin/EDTA buffer (0.05/0.02% in phosphate buffer) and, after centrifugation (100 g, 5 min), taken up in a buffered saline solution (mmol/l: 115 NaCl, 20 NH4Cl, 5 KCl, 1 CaCl2, 1 MgSO4, 20 N-(2-hydroxyethyl)-piperazine-N[…]-2-ethanesulfonic acid (HEPES), 5 glucose and 1 g/l of bovine serum albumin; pH 7.4). This cell suspension was incubated at 37 °C. for 20 min with 5 μM BCECF acetoxymethyl ester. The cells were then washed and resuspended in a sodium- and bicarbonate-free buffer solution (mmol/l: 5 HEPES, 133.8 choline chloride, 4.7 KCl, 1.25 MgCl2, 0.97 K2HPO4, 0.23 KH2PO4, 5 glucose; pH 7.4).
For the subsequent fluorescence measurement in the FLIPR (Fluorescent Imaging Plate Reader), 100 μl of this cell suspension in each case containing 20,000 cells were added by pipette per well of a 96-well microtiter plate and this microtiter plate was centrifuged (100 g, 5 min). In the FLIPR, 100 μl of buffer solution in each case were then removed from a further prepared microtiter plate and added by pipette to each of the 96 wells of the measuring plate. In this case, for a 100% control, i.e. a recovery of the intracellular pH (pHi) by means of the NCBE, a bicarbonate- and sodium-containing buffer solution (mmol/l: 5 HEPES, 93.8 NaCl, 40 NaHCO3, 4.7 KCl, 1.25 CaCl2, 1.25 MgCl2, 0.97 Na2HPO4, 0.23 NaH2PO4, 5 glucose; pH 7.4) which contained 50 μM HOE 642 was used. For a 0% control, i.e. no pHi recovery at all, a bicarbonate-free, sodium-containing buffer solution (mmol/l: 5 HEPES, 133.8 NaCl, 4.7 KCl, 1.25 CaCl2, 1.25 MgCl2, 0.97 Na2HPO4, 0.23 NaH2PO4, 5 glucose; pH 7.4) to which 50 μM HOE 642 were also added was employed. The compounds according to the invention were added in various concentrations of the sodium- and bicarbonate-containing solution. After addition of the buffer solutions to the dye-loaded acidified cells situated in the measuring plate, the increase in the fluorescence intensity which corresponded to an increase in the pHi was determined in each well of the microtiter plate.
The kinetics were in this case recorded at 35° C. over a period of 2 minutes. The increase in the fluorescence intensities for different concentrations of the compounds according to the invention was related to the two controls and from this the inhibitory action of the substances was determined.

| SMILES | Residual activity % of the NCBE at 10 μM |
| --- | --- |
| N#CNS(=O)(=O)c1ccccc1-c1ccc(CN(Cc2cccc(Cl)c2)C(=O)Nc2c(F)cccc2F)cc1 [Example 305] | 84.9% |
| N#CNS(=O)(=O)c1ccccc1-c1ccc(CN(C(=O)CC2CCCCC2)C2CCCc3ccccc32)cc1 (stereo not shown) [Example 355] | 46.8% |
| N#CNS(=O)(=O)c1ccccc1-c1ccc(CN(Cc2ccccc2)C(=O)C(NC(=O)OCc2ccccc2)c2ccccc2)cc1 (stereo not shown) [Example 242] | 72.4% |
| N#CNS(=O)(=O)c1ccccc1-c1ccc(CN(Cc2ccco2)C(=O)Cc2ccc(Cl)cc2)cc1 [Example 148] | 45.6% |
| N#CNS(=O)(=O)c1ccccc1-c1ccc(CN(Cc2ccccc2)C(=O)C2CCCCC2)cc1 [Example 13] | 74.7% |
| CCCC(=O)N(Cc1ccc(-c2ccccc2S(=O)(=O)NC#N)cc1)C1CCCCC1 [Example 6] | 84.5% |
| CC(C)CN(Cc1ccc(-c2ccccc2S(=O)(=O)NC#N)cc1)C(=O)c1cc2ccccc2s1 [Example 72] | 86.3% |
| Cc1ccccc1CN(Cc1ccc(-c2ccccc2S(=O)(=O)NC#N)cc1)C(=O)CCOc1ccccc1 [Example 342] | 85.3% |
| COCCC(=O)N(CC=C(C)CCC=C(C)C)Cc1ccc(-c2ccccc2S(=O)(=O)NC#N)cc1 [Example 323] | 23.6% |
| COc1ccc(CN(Cc2ccc(-c3ccccc3S(=O)(=O)NC#N)cc2)C(=O)C2CCCCC2)cc1 [Example 15] | 67.6% |
| C=CCOC(=O)N(CCO)Cc1ccc(-c2ccccc2S(=O)(=O)NC#N)cc1 [Example 44] | 82.6% |
| N#CNS(=O)(=O)c1ccccc1-c1ccc(CN(Cc2ccc(C(F)(F)F)cc2)C(=O)Cc2ccccc2)cc1 [Example 129] | 47.4% |
| C=CCOC(=O)N(Cc1ccccc1)Cc1ccc(-c2ccccc2S(=O)(=O)NC#N)cc1 [Example 43] | 41.6% |
| CC(C)NC(=O)N(Cc1ccc(-c2ccccc2S(=O)(=O)NC#N)cc1)Cc1cccc(Cl)c1 [Example 306] | 90.2% |
| CC(C)NC(=O)N(Cc1ccccc1)Cc1ccc(-c2ccccc2S(=O)(=O)NC#N)cc1 [Example 298] | 74.7% |
| N#CNS(=O)(=O)c1ccccc1-c1ccc(CN(CC2CCCCC2)C(=O)Cc2cccs2)cc1 [Example 256] | 36.4% |
| CN(Cc1ccc(-c2ccccc2S(=O)(=O)NC#N)cc1)C(=O)Cc1c[nH]c2ccccc12 [Example 206] | 23.8% |
| COc1ccc(CC(=O)N(CCc2cccs2)Cc2ccc(-c3ccccc3S(=O)(=O)NC#N)cc2)cc1 [Example 172] | 89.7% |
| COc1ccccc1CN(Cc1ccc(-c2ccccc2S(=O)(=O)NC#N)cc1)C(=O)c1ccccc1F [Example 94] | 87.7% |
| C=CCOC(=O)N(Cc1ccc(Cl)cc1)Cc1ccc(-c2ccccc2S(=O)(=O)NC#N)cc1 [Example 46] | 52.2% |
| CCCCC(=O)N(Cc1ccc(Cl)cc1)Cc1ccc(-c2ccccc2S(=O)(=O)NC#N)cc1 [Example 65] | 80.0% |
| N#CNS(=O)(=O)c1ccccc1-c1ccc(CN(Cc2ccc(Cl)cc2)C(=O)CCc2ccccc2)cc1 [Example 66] | 83.1% |
| COCCN(Cc1ccc(-c2ccccc2S(=O)(=O)NC#N)cc1)C(=O)Cc1ccsc1 [Example 227] | 50.6% |

| SMILES | Residual activity % of the NCBE at 10 μM |
| --- | --- |
| COCCC(=O)N(Cc1ccc(-c2ccccc2S(=O)(=O)NC#N)cc1)Cc1ccc2ccccc2c1 [Example 320] | 38.8% |
| N#CNS(=O)(=O)c1ccccc1-c1ccc(CN(Cc2ccccc2)C(=O)Cc2ccccc2[N+](=O)[O-])cc1 [Example 243] | 99.9% |
| CCN(Cc1ccc(-c2ccccc2S(=O)(=O)NC#N)cc1)C(=O)Cc1c[nH]c2ccccc12 [Example 207] | 31.0% |
| N#CNS(=O)(=O)c1ccccc1-c1ccc(CN(Cc2ccco2)C(=O)Cc2cccs2)cc1 [Example 139] | 48.5% |
| COc1ccccc1C(=O)N(Cc1ccc(-c2ccccc2S(=O)(=O)NC#N)cc1)Cc1ccccc1F [Example 336] | 58.1% |
| N#CNS(=O)(=O)c1ccccc1-c1ccc(CN(Cc2ccc(C(F)(F)F)cc2)C(=O)c2ccccc2F)cc1 [Example 99] | 89.6% |
| C[C@@H](c1ccccc1)N(Cc1ccc(-c2ccccc2S(=O)(=O)NC#N)cc1)C(=O)c1cccs1 [Example 83] | 97.5% |
| N#CNS(=O)(=O)c1ccccc1-c1ccc(CN(C(=O)CC2CCCC2)C2CCCc3ccccc32)cc1 (stereo not shown) [Example 365] | 45.1% |
| COc1ccccc1C(=O)N(Cc1ccc(-c2ccccc2S(=O)(=O)NC#N)cc1)C1CCCc2ccccc21 (stereo not shown) [Example 335] | 79.6% |
| CC(=O)N(Cc1ccc(-c2ccccc2S(=O)(=O)NC#N)cc1)CC1CC1 [Example 182] | 74.9% |
| N#CNS(=O)(=O)c1ccccc1-c1ccc(CN(CC2CCCO2)C(=O)CCOc2ccccc2)cc1 (stereo not shown) [Example 348] | 46.3% |
| Cc1ccccc1CN(Cc1ccc(-c2ccccc2S(=O)(=O)NC#N)cc1)C(=O)CC1CCCCC1 [Example 352] | 35.2% |
| CCN(Cc1ccc(-c2ccccc2S(=O)(=O)NC#N)cc1)C(=O)Cc1csc2ccccc12 [Example 215] | 65.7% |
| N#CNS(=O)(=O)c1ccccc1-c1ccc(CN(C(=O)Cc2ccsc2)C2CC2)cc1 [Example 229] | 86.7% |
| N#CNS(=O)(=O)c1ccccc1-c1ccc(CN(Cc2ccc(F)cc2)C(=O)Cc2ccc(Cl)cc2)cc1 [Example 157] | 24.9% |
| Cc1ccc(CN(Cc2ccc(-c3ccccc3S(=O)(=O)NC#N)cc2)C(=O)c2cccs2)cc1 [Example 85] | 51.1% |
| C[C@@H](c1ccccc1)N(Cc1ccc(-c2ccccc2S(=O)(=O)NC#N)cc1)C(=O)C(c1ccccc1)c1ccccc1 [Example 113] | 94.6% |
| COCCC(=O)N(Cc1ccc(-c2ccccc2S(=O)(=O)NC#N)cc1)Cc1cccc(-c2ccccc2)c1 [Example 327] | 17.4% |
| N#CNS(=O)(=O)c1ccccc1-c1ccc(CN(CCCc2ccccc2)C(=O)Cc2c[nH]c3ccccc23)cc1 [Example 202] | 38.5% |
| COC(=O)C(Cc1ccccc1)N(Cc1ccc(-c2ccccc2S(=O)(=O)NC#N)cc1)C(=O)Cc1ccsc1 (stereo not shown) [Example 233] | 68.1% |
| N#CNS(=O)(=O)c1ccccc1-c1ccc(CN(CCc2cccs2)C(=O)Cc2ccc(Cl)cc2)cc1 [Example 150] | 44.7% |
| N#CNS(=O)(=O)c1ccccc1-c1ccc(CN(Cc2ccccc2Cl)C(=O)c2ccccc2F)cc1 [Example 91] | 62.7% |

same assay, conditions: 10 μM compound; human endothelial cells (ECV-304); related to 100% and 0% pHi recovery controls

| SMILES | Residual activity of the NCBE at 10 μM |
| --- | --- |
| N#CNS(=O)(=O)c1ccccc1-c1ccc(CN(Cc2ccccc2)C(=O)Cc2cccs2)c(Cl)c1 [Example 554, 4′-{[Benzyl-(2-thiophen-2-ylacetyl)amino]methyl}-3′-chlorobiphenyl-2-sulfonylcyanamide] | 15% |

same assay, conditions: compound at 10 μM; sub-table with R7 substituent

| SMILES | Residual activity % of the NCBE at 10 μM |
| --- | --- |
| Cc1ccc(-c2ccc(CN(CCc3ccccc3)C(=O)Cc3cccs3)cc2)c(S(=O)(=O)NC#N)c1 [Example 518] | 93.5% |
| Cc1ccc(-c2ccc(CN(Cc3ccccc3F)C(=O)Cc3ccc(Cl)cc3)cc2)c(S(=O)(=O)NC#N)c1 [Example 535] | 84.0% |
| Cc1ccc(-c2ccc(CN(Cc3cccc4ccccc34)C(=O)CC3CCCCC3)cc2)c(S(=O)(=O)NC#N)c1 [Example 546] | 63.6% |
| Cc1ccc(-c2ccc(CN(Cc3cccc(Cl)c3Cl)C(=O)CC3CCCCC3)cc2)c(S(=O)(=O)NC#N)c1 [Example 552] | 61.5% |
| Cc1ccc(-c2ccc(CN(Cc3cccc4ccccc34)C(=O)Cc3ccsc3)cc2)c(S(=O)(=O)NC#N)c1 [Example 538] | 80.3% |
| Cc1ccc(-c2ccc(CN(Cc3ccc4ccccc4c3)C(=O)Cc3ccsc3)cc2)c(S(=O)(=O)NC#N)c1 [Example 539] | 65.2% |
